This is an account of results in US20230382915A1, “GCN2 AND PERK KINASE INHIBITORS AND METHODS OF USE THEREOF” (Deciphera Pharmaceuticals, LLC, priority 2021, published 2023).

What all share (assay type): cell-based
Experiment [1] deals with phospho-GCN2 (Thr899) in HCT116 colorectal cancer cells. Description: HCT116 amino acid starved (-AA) phospho-GCN2 Western blot. To be noted: Homo sapiens, HCT-116, 4 h, read-out: HCT116 -AA pGCN2 Western Blot. As for the experimental part:
HCT116 colorectal cancer cells (catalog #CCL-247) were obtained from the American Type Culture Collect (ATTC, Manassas, VA). Briefly, cells were grown in RPMI 1640 supplemented with 10% heat inactivated fetal bovine serum (Invitrogen, Carlsbad, CA) and 1% Penicillin/Streptomycin/L-Glutamine at 37° C., 5% CO2, and 95% humidity. Cells were expanded until reaching 70-95% confluency at which point they were subcultured or harvested for assay use. Cells were seeded in 12-well culture plate at five hundred thousand cells per well in 1 mL complete growth medium and incubated overnight at 37° C., 5% CO2, and 95% humidity. The next day each well was replaced with 1 mL Earle's Balanced Salt Solution (EBSS, Invitrogen, Carlsbad, CA) supplemented with 10% Dialyzed Fetal Bovine Serum, 5.5 mM Glucose, 1% Penicillin/Streptomycin and 1% Vitamin solution (thermo #11120052). A serial dilution of test compound was dispensed into well. Plates were incubated for 4 h at 37° C., 5% CO2, and 95% humidity. […] Western blot was performed on each lysate to quantify phospho-GCN2 (Thr899), total GCN2, ATF4 and beta-Actin. […] Data were analyzed using GraphPad Prism software (GraphPad, San Diego, CA) to calculate IC50 values.
On the technique in general: In western blotting, separated proteins are transferred to a membrane and probed.

For experiment [2], the system named is H929 Multiple Myeloma cells. Description: Cell proliferation, combination with standard of care, H929. To be noted: Homo sapiens, NCI-H929; with 3 nM bortezomib, 96 h, FIG. 6B; read-out: inhibition of cell proliferation IC50, combination treatment. As for the experimental part:
H929, RPMI8226, GA-10 and DoHH-2 cells (catalog #CRL-9068) were obtained from the American Type Culture Collection (ATTC, Manassas, VA). H929 Cells were maintained in RPMI-1640 medium supplemented with 20% heat-inactivated fetal bovine serum (catalog #A3840002, ThermoFisher Scientific, Waltham, MA), 1% Penicillin/Streptomycin/L-Glutamine (catalog #10378016, ThermoFisher Scientific, Waltham, MA), and 0.05 mM 2-mercaptoethanol (catalog #21985-023, ThermoFisher Scientific, Waltham, MA). […]
For cell proliferation assay appropriate number of cells (Forty thousand cells for H929. Twenty thousand cells for RPMI8226 and GA-10. Eight thousand cells for DoHH-2) were seeded per well in 200 μL in respective medium were dispensed into a 96-well black clear bottom plate. […] Plates were read on a Synergy2 or equivalent reader (Biotek, Winooski VT) using an excitation of 540 nm and an emission of 600 nm. At the end of the incubation of DoHH-2, cell viability was determined using CellTiter-Glo® assay (Promega, Madison, WI). Luminescence was measured using EnVision MultiLabel Reader (PerkinElmer, Waltham, MA). Data was analyzed using GraphPad Prism software (GraphPad, San Diego, CA) to calculate IC50 values.

Experiment [3] relates to HT-1080 cell line with GCN2 or PERK knockdown. Description: HT-1080 shRNA knockdown assay. As for the experimental part: Fibrosarcoma cell line HT-1080 (catalog […]) was obtained from the American Type Culture Collect (ATTC, Manassas, VA). Cells were grown in RPMI-1640 medium supplemented with 10% heat-inactivated fetal bovine serum and 1% Penicillin/Streptomycin/L-Glutamine (Invitrogen, Carlsbad, CA) at 37° C., 5% CO2, and 95% humidity and maintained at 50-80% confluency until use. shRNAs-expressing constructs targeting PERK, GCN2 or scrambled control were obtained from MISSION (Sigma, St. Louis, MO) and lentiviruses containing each construct were produced in-house. Cells were plated at 400,000 cells/well in 6-well tissue culture plates (ThermoFisher Scientific, Waltham, MA) with complete growth media and incubated overnight at 37° C., 5% CO2, and 95% humidity to attach. The next day, existing media was removed from each well and replenished with 1 mL/well fresh media containing 5 μg/mL polybrene (VectorBuilder, Chicago, IL). Cells were transduced with 200 μL/well corresponding lentivirus for 24 hours before being processed for western blot and cell proliferation assays.

As to `Cn1cc(-c2cccc(NS(=O)(=O)c3cc(Cl)cc(CO)c3Cl)c2F)c2c(N)ncnc21` [Example 2, N-(3-(4-amino-7-methyl-7H-pyrrolo[2,3-d]pyrimidin-5-yl)-2-fluorophenyl)-2,5-dichloro-3-(hydroxymethyl)benzenesulfonamide], the values for the IC50 in experiment [1] and in experiment [2] were at most 100 nM and 6 nM, respectively. Further, the “compound-mediated spheroid growth inhibition upon knockdown” value in experiment [3] (FIG. 13C) was “attenuated upon knockdown of GCN2 but not PERK”. The “reduction of compound-mediated upregulation of ATF4” value in experiment [3] (upon knockdown of GCN2, FIG. 13B) stood at 75%; in experiment [3] (upon knockdown of PERK, FIG. 13B), 50%.
